From patent publication US20020034725A1, “SENSITIZATION OF CELLS TO RADIATION AND AND CHEMOTHERAPY” (priority 1996, published 2002)

Key:
3.7, 5R and REF-GG cells = assay: Morphological alterations of ras transformed REF cells; type: cell-based, rat
Description: FIG. 11A is an image of 3.7 cells that were cultured in medium containing 2.5 μM FTI-277 (right) or DMSO (left) for 48 hours.
FIG. 11B is an image of REF-GG cells that were cultured in medium containing 5 μM FTI-277 (right) or DMSO (left) for 48 hours.

[1] = system: 5R, 3.7, MR4 and REF cells; assay: Radiation survival determination (clonogenic survival); type: cell-based, rat; conditions: for plating efficiency: unaffected by FTI-277
Description: FIG. 14A comprises a series of graphs depicting clonogenic survival of 5R, 3.7, MR4, and REF cells following treatment with FTI-277 and irradiation of the cells. Immediately prior to irradiation, FTI-277 was added at concentrations of 2.5 μM (3.7 cells) or 5 μM (5R, MR4 and REF cells). The inhibitor was diluted out of the culture medium 24 hours later resulting in a final concentration of inhibitor of 1 μM (3.7 cells) or 2 μM (5R, MR4 and REF). The plating efficiencies of MR4 and […] were unaffected by treatment with FTI-277, being 100% and 32-38%, respectively. FTI-277 reduced the plating efficiency of 3.7 and REF cells by 50% of untreated control values which were 75% and 5%, respectively. […] The data points shown represent the mean of the results obtained from at least three separate dishes of cells. The open symbols indicate the results obtained in untreated cells and the closed symbols are those results obtained in cells treated with FTI-277. In the panel labeled 3.7, the open triangles are the results obtained in untreated MR4 cells.
Cells obtained from log growth cultures were plated in 60-mm dishes and allowed to attach for 4 hours before addition of FTI-277 to the medium. The plating medium was then removed and fresh medium containing FTI-277 in DMSO or DMSO alone (for control dishes) was added immediately before irradiation. Cells were irradiated with a Mark I cesium irradiator (J. S. Shepherd, San Fernando, Calif.) at a dose rate of 1.7 Gray per minute. Colonies of cells were stained and counted 10-14 days after irradiation (McKenna et al., 1990, supra). The surviving fraction of cells at a given dose is defined as: [formula]
Each point on the survival curves represents the mean surviving fraction from at least three dishes of cells.

H-ras = assay: Western blot of H-ras prenylation in SW480 cells; type: cell-based, human; conditions: 48 hours
Description: FIG. 17A is an image of a Western blot depicting inhibition by FTI-277 of K-ras prenylation in human SW480 colon carcinoma cells. SW480 cells were treated with the indicated concentrations of FTI-277 (μM) for 48 hours. Samples were harvested and cell lysates were analyzed by Western blotting using either a H-ras monoclonal antibody (top) or a K-ras monoclonal antibody (bottom). Arrows indicate unfarnesylated ras bands.

wild type c-H-ras = assay: Western blot of ras farnesylation in untransformed REF and MR4 cells; type: cell-based, rat
Description: The oncogene-transfected cells used in this study were all derived from early passage rat embryo fibroblast (REF) by transfection with the pEJ plasmid containing the H-ras gene isolated from the EJ bladder carcinoma. This vector was introduced by calcium phosphate DNA transfer into primary REF, either alone or together with the pMC29 vector containing v-myc. One clone containing both the introduced H-ras gene and the v-myc genes is 3.7 (McKenna et al., 1990, Cancer Res. 50:97-102). 4R and 5R cells were obtained as rare transformants after transfection with the pEJ plasmid alone (McKenna et al., 1993, supra). MR4 cells were immortalized by transfection with an expression vector comprising v-myc linked to a neomycin-resistant selectable marker (McKenna et al., 1991, Radiat. Res. 125:283-287). REF-GG cells were obtained by transforming REF cells with a chimeric H-ras(v12) in which the CAAX motif is CVLL. All cell lines were mycoplasma free.
Cells were lysed in culture dishes with 1 x reducing Laemmli sample buffer. Samples were boiled, sheared and clarified by centrifugation at 14,000 rpm in a microfuge before storage at −20° C. Samples containing equal amounts of protein were separated on a 12% SDS polyacrylamide gel and electrophoretically transferred to nitrocellulose membranes. Membranes were blocked for 1-2 hours in PBS containing 0.1% Tween-20 and 5% powdered milk before antibody addition. Membranes were probed with monoclonal pan-ras antibody AB-4 (Oncogene Science, Uniondale, N.Y.) at a concentration of 0.5 μg/ml, or with monoclonal H-ras antibody LA069 (1:5000 dilution; Quality Biotech, Camden, N.J.). Detection of protein was accomplished using the ECL chemiluminescence kit (Amersham, Arlington Heights, Ill.). Images were digitized using an Arcus II scanner, and figures were assembled using Adobe Photoshop 3.0.

[2] = system: T24 bladder carcinoma cells; assay: Colony formation / surviving fraction at 2 Gray in T24 cells; type: cell-based, human
Description: FIG. 16B is a graph depicting colony formation following FTI-277 treatment and irradiation of human T24 bladder carcinoma cells. Cells were treated for 24 hours with 5 μM of FTI-277 and were harvested and plated at the indicated cell density in medium containing DMSO (left panel) or 5 μM FTI-277 (right panel) and were immediately irradiated. Cultures were re-fed after 24 hours with medium that contained no inhibitor. […] The cells were allowed to grow for two weeks prior to scoring for colony formation. Open squares: unirradiated cells; closed circles: 2 Gray irradiated cells. The surviving fraction of cells was calculated as described in the description of FIG. 14B. The correlation coefficient for linear regression analysis (r^2) was greater than 0.95 in all cases.
In view of the fact that accumulation of unfarnesylated H-ras in T24 cells takes longer, these cells were pretreated for 24 hours prior to irradiation and subsequent assay for clonogenic survival. An additional consideration raised by pretreatment of cells is that FTI-277 and other farnesyltransferase inhibitors can affect the farnesylation of rho proteins involved in cell morphology and thus alter cell adherence. The pretreatment of T24 cells with FTI-277 reduced the ability of these cells to form discrete colonies after replating, resulting in the formation of secondary satellite colonies. […]

Compound: COC(=O)[C@H](CCSC)NC(=O)c1ccc(NC[C@@H](N)CS)cc1-c1ccccc1 [FTI-277]
- cell morphology (3.7, 5R and REF-GG cells; H-ras transformed REF cells (3.7 cells 2.5 μM), 48 hours): partial reversion of transformation
- cell morphology (3.7, 5R and REF-GG cells; REF-GG cells, 5 μM): did not induce altered cell morphology
- radioresistance (survival curves) ([1]; 3.7 (2.5 μM) and 5R (5 μM) cells, 24 hours after irradiation): reduced to a level of survival which was similar to that seen in MR4 cells
- reduction of plating efficiency, of untreated control values ([1]; 3.7 and REF cells): 50%
- plating efficiency ([1]; 5R cells): 32-38%
- plating efficiency ([1]; MR4 cells): 100%
- radiation survival ([1]; MR4 or REF cells, 5 μM): no effect on radiation survival
- lowest concentration with altered migration of H-ras (H-ras): 2.5 µM
- migration of ras (wild type c-H-ras; MR4 cells, up to 10 μm, pan-ras antibody): no changes in the migration of ras
- H-ras farnesylation status (wild type c-H-ras; untransformed REF, doses of up to 30 μM): majority of the H-ras remained in the farnesylated form
- surviving fraction at 2 Gray irradiation ([2]; 5 μM, 24 hours pretreatment): 0.35
- colony formation without irradiation ([2]; FTI-277 treatment alone): did not significantly reduce the fraction of wells giving rise to colonies
